Results: patent US20250002487A1, “HETEROCYCLIC COMPOUNDS AND USES THEREOF” (Ventus Therapeutics U.S., Inc., priority 2021, published 2025)
pIC50: −log10 of the molar value.

The compounds below were run against human-cGAS (h-cGAS) (Homo sapiens, UniProt Q8N884) (assay: hcGAS Kinase-Glo Assay). Settings: 40 nM h-cGAS, 100 μM ATP, 100 μM GTP, 25 nM dsDNA, 3 h incubation, read-out: hcGAS potency IC50.
Sequence of human-cGAS (h-cGAS) (Q8N884 whole entry): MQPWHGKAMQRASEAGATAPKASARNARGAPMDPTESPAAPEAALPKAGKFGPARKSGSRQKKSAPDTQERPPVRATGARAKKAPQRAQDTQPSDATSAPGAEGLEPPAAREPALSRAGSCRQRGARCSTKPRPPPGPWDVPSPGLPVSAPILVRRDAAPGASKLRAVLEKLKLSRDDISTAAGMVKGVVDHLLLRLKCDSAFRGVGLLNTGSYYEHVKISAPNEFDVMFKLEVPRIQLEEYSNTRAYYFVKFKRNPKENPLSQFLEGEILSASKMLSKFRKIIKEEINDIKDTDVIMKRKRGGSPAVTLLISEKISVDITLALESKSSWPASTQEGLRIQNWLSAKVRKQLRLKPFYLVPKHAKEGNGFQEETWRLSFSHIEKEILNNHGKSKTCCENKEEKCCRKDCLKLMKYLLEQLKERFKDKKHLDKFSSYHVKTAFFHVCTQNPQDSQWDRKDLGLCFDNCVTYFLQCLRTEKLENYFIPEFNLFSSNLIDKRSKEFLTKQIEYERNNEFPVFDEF
Type: biochemical
Procedure, shortened: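 Kinase-Glo luminescent read-out of human cGAS activity, following the published Lama et al. (2019) protocol with slightly altered conditions. Inhibition reported as IC50.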
`CSc1nnc(NC(=O)c2noc(N3CCCCC3c3ccccc3)n2)s1` (centres unmarked) [Compound 103, N-(5-(methylthio)-1,3,4-thiadiazol-2-yl)-5-(2-phenylpiperidin-1-yl)-1,2,4-oxadiazole-3-carboxamide] showed a pIC50 of 6.00 to 6.30.
Work on `CSc1nnc(NC(=O)c2noc(-c3ccccn3)n2)s1` [Compound 104, N-[5-(methylsulfanyl)-1,3,4-thiadiazol-2-yl]-5-(132yridine-2-yl)-1,2,4-oxadiazole-3-carboxamide] yielded a pIC50 of 6.00 to 6.30.
Work on `CSc1nnc(NC(=O)c2noc(-c3cccnc3)n2)s1` [Compound 105, N-[5-(methylsulfanyl)-1,3,4-thiadiazol-2-yl]-5-(pyridin-3-yl)-1,2,4-oxadiazole-3-carboxamide] yielded a pIC50 of no more than 6.00.
`CSc1nnc(NC(=O)c2nnc(-c3ccccn3)o2)s1` [Compound 106, N-(5-(methylthio)-1,3,4-thiadiazol-2-yl)-5-(pyridin-2-yl)-1,3,4-oxadiazole-2-carboxamide] gave a pIC50 of 6.00 to 6.30.
For `CSc1nnc(NC(=O)c2nnc(-c3cccnc3)o2)s1` [Compound 107, N-[5-(methylsulfanyl)-1,3,4-thiadiazol-2-yl]-5-(pyridin-3-yl)-1,3,4-oxadiazole-2-carboxamide], the pIC50 was 6.00 to 6.30.
Compound `CSc1nnc(NC(=O)c2nnc(N3CCCCC3)o2)s1` [Compound 108, N-(5-(methylthio)-1,3,4-thiadiazol-2-yl)-5-(piperidin-1-yl)-1,3,4-oxadiazole-2-carboxamide] has a pIC50 of 6.00 to 6.30.
`CSc1nnc(NC(=O)c2nnc(N3CCCC(O)C3)o2)s1` (centres unmarked) [Compound 109, 5-(3-hydroxypiperidin-1-yl)-N-(5-(methylthio)-1,3,4-thiadiazol-2-yl)-1,3,4-oxadiazole-2-carboxamide] gave a pIC50 of no more than 6.00.
For `CSc1nnc(NC(=O)c2nnc(N3CCCC(C(=O)O)C3)o2)s1` (centres unmarked) [Compound 110, 1-(5-{[5-(methylsulfanyl)-1,3,4-thiadiazol-2-yl]carbamoyl}-1,3,4-oxadiazol-2-yl)piperidine-3-carboxylic acid], the pIC50 was 6.00 to 6.30.
`CSc1nnc(NC(=O)c2nnc(N3CCCC3C(=O)O)o2)s1` (centres unmarked) [Compound 111, 1-(5-{[5-(methylsulfanyl)-1,3,4-thiadiazol-2-yl]carbamoyl}-1,3,4-oxadiazol-2-yl)pyrrolidine-2-carboxylic acid] was tested, and the pIC50 was 6.30 to 7.00.
Compound `CSc1nnc(NC(=O)c2nnc(N3CCC(C(=O)O)C3)o2)s1` (centres unmarked) [Compound 112, 1-(5-{[5-(methylsulfanyl)-1,3,4-thiadiazol-2-yl]carbamoyl}-1,3,4-oxadiazol-2-yl)pyrrolidine-3-carboxylic acid] has a pIC50 of 6.30 to 7.00.
Compound `CSc1nnc(NC(=O)c2nnc(N(C)Cc3ccccc3)o2)s1` [Compound 113, 5-[benzyl(methyl)amino]-N-[5-(methylsulfanyl)-1,3,4-thiadiazol-2-yl]-1,3,4-oxadiazole-2-carboxamide] has a pIC50 of 6.00 to 6.30.
With `CSc1nnc(NC(=O)c2nnc(N(C)C(C)c3ccccc3)o2)s1` (centres unmarked) [Compound 114, 5-[methyl(1-phenylethyl)amino]-N-[5-(methylsulfanyl)-1,3,4-thiadiazol-2-yl]-1,3,4-oxadiazole-2-carboxamide] the pIC50 was 6.00 to 6.30.
Work on `CSc1nnc(NC(=O)c2nnc(N3CCCC3CO)o2)s1` (centres unmarked) [Compound 115, 5-[2-(hydroxymethyl)pyrrolidin-1-yl]-N-[5-(methylsulfanyl)-1,3,4-thiadiazol-2-yl]-1,3,4-oxadiazole-2-carboxamide] yielded a pIC50 of 6.00 to 6.30.
For `CSc1nnc(NC(=O)c2nnc(N3CCC(O)C3)o2)s1` (centres unmarked) [Compound 116, 5-(3-hydroxypyrrolidin-1-yl)-N-[5-(methylsulfanyl)-1,3,4-thiadiazol-2-yl]-1,3,4-oxadiazole-2-carboxamide], the pIC50 was 6.00 to 6.30.
`O=C(Nc1nnc(-c2ccccc2Cl)s1)c1nnc(N2CCC[C@@H]2c2ccccn2)o1` [Compound 117, (R)-N-(5-(2-chlorophenyl)-1,3,4-thiadiazol-2-yl)-5-(2-(pyridin-2-yl)pyrrolidin-1-yl)-1,3,4-oxadiazole-2-carboxamide] showed a pIC50 of 6.30 to 7.00.
For `O=C(Nc1nnc(-c2ccccc2Cl)s1)c1nnc(N2CCC[C@@H]2c2ccccc2)o1` [Compound 118, (R)-N-(5-(2-chlorophenyl)-1,3,4-thiadiazol-2-yl)-5-(2-phenylpyrrolidin-1-yl)-1,3,4-oxadiazole-2-carboxamide], the pIC50 was 6.30 to 7.00.
Work on `CSc1nnc(NC(=O)c2nnc(N3CCCC(C)(C)C3)o2)s1` [Compound 119, 5-(3,3-dimethylpiperidin-1-yl)-N-(5-(methylthio)-1,3,4-thiadiazol-2-yl)-1,3,4-oxadiazole-2-carboxamide] yielded a pIC50 of 6.00 to 6.30.
Work on `CSc1nnc(NC(=O)c2nnc(N3CCC(C)(C)CC3)o2)s1` [Compound 120, 5-(4,4-dimethylpiperidin-1-yl)-N-(5-(methylthio)-1,3,4-thiadiazol-2-yl)-1,3,4-oxadiazole-2-carboxamide] yielded a pIC50 of 6.00 to 6.30.
`CSc1nnc(NC(=O)c2nnc(N3CCCC3c3ccccc3)o2)s1` (centres unmarked) [Compound 123, N-(5-(methylthio)-1,3,4-thiadiazol-2-yl)-5-(2-phenylpyrrolidin-1-yl)-1.3,4-oxadiazole-2-carboxamide] was tested, and the pIC50 was 6.30 to 7.00.
`CSc1nnc(NC(=O)c2nnc(N3CCNC(=O)C3)o2)s1` [Compound 124, N-(5-(methylthio)-1,3,4-thiadiazol-2-yl)-5-(3-oxopiperazin-1-yl)-1,3,4-oxadiazole-2-carboxamide] was tested, and the pIC50 was no more than 6.00.
`CSc1nnc(NC(=O)c2nnc(N3CCC[C@@H]3c3ccccc3)o2)s1` [Compound 125, (R)-N-(5-(methylthio)-1,3,4-thiadiazol-2-yl)-5-(2-phenylpyrrolidin-1-yl)-1,3,4-oxadiazole-2-carboxamide] showed a pIC50 of 6.30 to 7.00.
Work on `CSc1nnc(NC(=O)c2nnc(N3CCC[C@H]3c3ccccc3)o2)s1` [Compound 126, (S)-N-(5-(methylthio)-1,3,4-thiadiazol-2-yl)-5-(2-phenylpyrrolidin-1-yl)-1,3,4-oxadiazole-2-carboxamide] yielded a pIC50 of 6.00 to 6.30.
Work on `O=C(Nc1nnc(-c2cscn2)s1)c1onc2ccccc12` [Compound 127, N-(5-(thiazol-4-yl)-1,3,4-thiadiazol-2-yl)benzo[c]isoxazole-3-carboxamide] yielded a pIC50 of 6.00 to 6.30.
`O=C(Nc1nnc(-c2cncs2)s1)c1onc2ccccc12` [Compound 128, N-(5-(thiazol-5-yl)-1,3,4-thiadiazol-2-yl)benzo[c]isoxazole-3-carboxamide] was tested, and the pIC50 was no more than 6.00.
Work on `O=C(Nc1nnc(-c2c[nH]cn2)s1)c1onc2ccccc12` [Compound 129, N-[5-(1H-imidazol-4-yl)-1,3,4-thiadiazol-2-yl]-2,1-benzoxazole-3-carboxamide] yielded a pIC50 of no more than 6.00.
`O=C(Nc1nnc(-c2cnccn2)s1)c1onc2ccccc12` [Compound 130, N-[5(pyrazin-2-yl)-1,3,4-thiadiazol-2-yl]-2,1-benzoxazole-3-carboxamide] was tested, and the pIC50 was 6.00 to 6.30.
In the case of `O=C(Nc1nnc(-c2nccs2)s1)c1onc2ccccc12` [Compound 131, N-(5-(thiazol-2-yl)-1,3,4-thiadiazol-2-yl)benzo[c]isoxazole-3-carboxamide], the pIC50 was 6.30 to 7.00.
`O=C(O)Cc1nnc(NC(=O)c2onc3ccccc23)s1` [Compound 132, [5-(2,1-benzoxazole-3-amido)-1,3,4-thiadiazol-2-yl]acetic acid] gave a pIC50 of no more than 6.00.
`CSc1nnc(NC(=O)c2nnn(Cc3ccccn3)n2)s1` [Compound 133, N-[5-(methylthio)-1,3,4-thiadiazol-2-yl]-2-(pyridin-2-ylmethyl)-1,2,3,4-tetrazole-5-carboxamide] showed a pIC50 of no more than 6.00.
Compound `CSc1nnc(NC(=O)c2nnn(Cc3ccccc3)n2)s1` [Compound 134, 2-benzyl-N-(5-(methylthio)-1,3,4-thiadiazol-2-yl)-2H-tetrazole-5-carboxamide] has a pIC50 of no more than 6.00.
`CSc1nnc(NC(=O)c2nnn(Cc3cccnc3)n2)s1` [Compound 135, N-(5-(methylthio)-1,3,4-thiadiazol-2-yl)-2-(pyridin-3-ylmethyl)-2H-tetrazole-5-carboxamide] showed a pIC50 of no more than 6.00.
For `CSc1nnc(NC(=O)c2nnn(-c3ccccn3)n2)s1` [Compound 136, N-(5-(methylthio)-1,3,4-thiadiazol-2-yl)-2-(pyridin-2-yl)-2H-tetrazole-5-carboxamide], the pIC50 was 6.00 to 6.30.
`CSc1nnc(NC(=O)c2nnn(-c3cccnc3)n2)s1` [Compound 137, N-(5-(methylthio)-1,3,4-thiadiazol-2-yl)-2-(pyridin-3-yl)-2H-tetrazole-5-carboxamide] gave a pIC50 of no more than 6.00.
`CSc1nnc(NC(=O)c2nnn(-c3ccccc3F)n2)s1` [Compound 138, 2-(2-fluorophenyl)-N-[5-(methylsulfanyl)-1,3,4-thiadiazol-2-yl]-1,2,3,4-tetrazole-5-carboxamide] showed a pIC50 of 6.00 to 6.30.
In the case of `CSc1nnc(NC(=O)c2cc(-c3ccsc3)no2)s1` [Compound 139, N-[5-(methylsulfanyl)-1,3,4-thiadiazol-2-yl]-3-(thiophen-3-yl)-1,2-oxazole-5-carboxamide], the pIC50 was 6.00 to 6.30.
Work on `CSc1nnc(NC(=O)c2cc(-c3ccns3)no2)s1` [Compound 140, N-[5-(methylsulfanyl)-1,3,4-thiadiazol-2-yl]-3-(1,2-thiazol-5-yl)-1,2-oxazole-5-carboxamide] yielded a pIC50 of no more than 6.00.
Work on `CSc1nnc(NC(=O)c2cc(-c3cncs3)no2)s1` [Compound 141, N-(5-(methylthio)-1,3,4-thiadiazol-2-yl)-3-(thiazol-5-yl)isoxazole-5-carboxamide] yielded a pIC50 of no more than 6.00.
Work on `CSc1nnc(NC(=O)c2cc(-c3nccs3)no2)s1` [Compound 142, N-(5-(methylthio)-1,3,4-thiadiazol-2-yl)-3-(thiazol-2-yl)isoxazole-5-carboxamide] yielded a pIC50 of 6.00 to 6.30.
`O=C(Nc1nnc(-c2ccccc2C(F)(F)F)s1)c1onc2ccccc12` [Compound 143, N-(5-(2-(trifluoromethyl)phenyl)-1,3,4-thiadiazol-2-yl)benzo[c]iso-xazole-3-carboxamide] gave a pIC50 of 6.30 to 7.00.
`O=C(Nc1nnc(-c2ccccc2Br)s1)c1onc2ccccc12` [Compound 144, N-[5-(2-bromophenyl)-1,3,4-thiadiazol-2-yl]-2,1-benzoxazole-3-carboxamide] gave a pIC50 of 6.30 to 7.00.
`O=C(Nc1nnc(-c2cn[nH]c2)s1)c1onc2ccccc12` [Compound 145, N-(5-(1H-pyrazol-4-yl)-1,3,4-thiadiazol-2-yl)benzo[c]isoxazole-3-carboxamide] gave a pIC50 of no more than 6.00.
